Source: patent US20230212116A1, “SARS-COV-2 MAIN PROTEASE INHIBITORS” (TEXAS A&M UNIVERSITY SYSTEM, priority 2020, published 2023)
Where two headings read alike, the source gives them in different places.

Assays:
[1] = system: SARS-CoV-2; assay type: cell-based
[2] = system: SARS-CoV-2; experiment: microbe, parasite or virus in culture; assay type: cell-based
[3] = system: SARS-CoV-2; assay type: cell-based; details: A549/ACE2 cells; tested 80 nM to 10 μM
[4] = molecular target: T1, SARS-CoV-2 M^Pro (Severe acute respiratory syndrome coronavirus 2, UniProt P0DTD1); assay type: cell-based
[5] = molecular target: T1, SARS-CoV-2 M^Pro; experiment: biochemical; assay type: biochemical
[6] = Vero E6 cells, tested 80 nM to 10 μM, two repeats
[7] = Severe acute respiratory syndrome coronavirus 2, Vero C1008, Vero E6 cells, plaque reduction, read-out: antiviral EC50

For `CC(C)C[C@H](NC(=O)OCc1ccccc1)C(=O)N[C@@H](CC1CCNC1=O)C(O)S(=O)(=O)O` (stereo partly drawn) [GC376, (2S)-2-((S)-2-(((benzyloxy)carbonyl)amino)-4-methylpentanamido)-1-hydroxy-3-(2-oxopyrrolidin-3-yl)propane-1-sulfonic acid, reference compound], the “concentration of complete abolition of SARS-CoV-2-induced CPE” value (“concentration” for short) [1, 6] was 10 µM.
Compound `CC(C)C[C@H](NC(=O)[C@@H](NC(=O)OCc1ccccc1)[C@@H](C)OC(C)(C)C)C(=O)N[C@H](C=O)C[C@@H]1CCNC1=O` [MPI6, benzyl ((2S,3R)-3-(tert-butoxy)-1-(((S)-4-methyl-1-oxo-1-(((S)-1-oxo-3-((S)-2-oxopyrrolidin-3-yl)propan-2-yl)amino)pentan-2-yl)amino)-1-oxobutan-2-yl)carbamate] has an EC50 ([2]; Severe acute respiratory syndrome coronavirus 2, Vero C1008, read-out: antiviral EC50, Vero E6 cells, plaque reduction) of 209 nM.
`O=C[C@H](C[C@@H]1CCNC1=O)NC(=O)[C@H](CC1CCCCC1)NC(=O)c1cc2ccccc2[nH]1` [MPI10, N-((S)-3-cyclohexyl-1-oxo-1-(((S)-1-oxo-3-((S)-2-oxopyrrolidin-3-yl)propan-2-yl)amino)propan-2-yl)-1H-indole-2-carboxamide, reference compound] was tested, and the “concentration” value [1, 6] was 10 µM and the “concentration” value [3] was “potency similar to that shown in Vero E6 cells”.
With `C[C@@H](OC(C)(C)C)[C@H](NC(=O)OCc1ccccc1)C(=O)N[C@@H](CC1CCCCC1)C(=O)N[C@H](C=O)C[C@@H]1CCNC1=O` [MPI8, benzyl ((2S,3R)-3-(tert-butoxy)-1-(((S)-3-cyclohexyl-1-oxo-1-(((S)-1-oxo-3-((S)-2-oxopyrrolidin-3-yl)propan-2-yl)amino)propan-2-yl)amino)-1-oxobutan-2-yl)carbamate] the “suppression of M^Pro-eGFP toxicity / promotion of cell survival and M^Pro-eGFP expression” value [4] was “effectively suppressed”.
With `CC(C)C[C@H](NC(=O)[C@@H](NC(=O)OCc1ccccc1)C(C)C)C(=O)N[C@H](C=O)C[C@@H]1CCNC1=O` [MPI3, benzyl ((S)-3-methyl-1-(((S)-4-methyl-1-oxo-1-(((S)-1-oxo-3-((S)-2-oxopyrrolidin-3-yl)propan-2-yl)amino)pentan-2-yl)amino)-1-oxobutan-2-yl)carbamate] the “concentration” value [1] was “not able to completely prevent CPE at all tested concentrations”.
For `C[C@@H](OC(C)(C)C)[C@H](NC(=O)OCc1ccccc1)C(=O)N[C@@H](Cc1ccccc1)C(=O)N[C@H](C=O)C[C@@H]1CCNC1=O` [MPI7, benzyl ((2S,3R)-3-(tert-butoxy)-1-oxo-1-(((S)-1-oxo-1-(((S)-1-oxo-3-((S)-2-oxopyrrolidin-3-yl)propan-2-yl)amino)-3-phenylpropan-2-yl)amino)butan-2-yl)carbamate], the “concentration” value [1, 6] was 2.5 to 5 µM, the “concentration” value [3] was “not able to completely abolish CPE at all tested conditions” and the EC50 [2, 7] was 170 nM.
`CC(C)[C@H](NC(=O)OCc1ccccc1)C(=O)N[C@@H](CC1CCCCC1)C(=O)N[C@H](C=O)C[C@@H]1CCNC1=O` [MPI5, benzyl ((S)-1-(((S)-3-cyclohexyl-1-oxo-1-(((S)-1-oxo-3-((S)-2-oxopyrrolidin-3-yl)propan-2-yl)amino)propan-2-yl)amino)-3-methyl-1-oxobutan-2-yl)carbamate] was tested, and the “concentration” value [1, 6] was 5 µM and the EC50 [2, 7] was 73 nM.
Work on `CC1(C)[C@@H]2[C@@H](C(=O)N[C@H](C=O)C[C@@H]3CCNC3=O)N(C(=O)[C@H](Cc3ccccc3)NC(=O)OCc3ccccc3)C[C@@H]21` [MPI94, benzyl ((S)-1-((1R,2S,5S)-6,6-dimethyl-2-(((S)-1-oxo-3-((S)-2-oxopyrrolidin-3-yl)propan-2-yl)carbamoyl)-3-azabicyclo[3.1.0]hexan-3-yl)-1-oxo-3-phenylpropan-2-yl)carbamate] yielded an IC50 [5] of 267 ± 44 nM.
`CC(C)C[C@H](NC(=O)OCc1ccccc1)C(=O)NN(CCC(N)=O)C(=O)/C=C/CN(C)C` [MPI43, benzyl (S,E)-(1-(2-(3-amino-3-oxopropyl)-2-(4-(dimethylamino)but-2-enoyl)hydrazineyl)-4-methyl-1-oxopentan-2-yl)carbamate] showed an IC50 ([5]; read-out: Enzymatic IC50) greater than 10000 nM.
